In patent publication US20040235939A1, “Synthesis of peloruside a and analogs thereof for use as antitumor agents” (priority 2003, published 2004):
Like-named read-outs stand apart in the source and are kept apart here.

Legend:
[1] = tested on: SK-MEL-5 cells; test: Cell viability of SK-MEL-5 cells treated with Peloruside analogs; assay type: cell-based, human; settings: SK-MEL-5, 10 to 1000 nM
Procedure: (§1) Cells were treated with medium, DMSO, LX3111 or LX3136 at a final concentration of 10, 50, 100, 200, 300, 400, 500, 600, 800 or 1000 nM. Cell viability was measured by counting surviving cells or measuring luminescence at 48 hours after drug treatment using the Cell Titer-Glo Luminescent Cell Viability Assay (Promega).

[2] = tested on: HeLa cells; test: Cell viability of HeLa cells treated with Peloruside analogs; assay type: cell-based, human; settings: 10 to 1000 nM
Procedure: as §1

[3] = tested on: HeLa; test: Growth of cultured human tumor cell line HeLa; assay type: cell-based; settings: up to 10 μM
[4] = tested on: Tubulin, purified from bovine brains; test: Tubulin polymerization in vitro; assay type: biochemical
Procedure: Tubulin, purified from bovine brains and prepared in PEM-buffer (80 mM PIPES, 0.5 mM MgCl2, 1 mM EGTA, pH 6.9) was thawed under vacuum on ice. Tubulin was incubated at 37° C. until almost melted and resuspended to a final concentration of 2 mg/ml and placed on ice. Peloruside A or Taxol® was added into transparent 96-well plates (Coming Incorp. Costar) and placed on ice. GTP (Sigma) was added to a final concentration of 1 mM. The 96 well plate was warmed to 37° C. and 120 μl of tubulin solution was added into each well. The absorbance of the reaction at 340 nm over time (each 40-50 sec.) was measured on the spectrophotometer TECAN SPECTRAFluor Plus. Peloruside A or Taxol® was added to the tubulin at a final concentration of 5 or 10 μM.

[5] = tested on: SK-MEL-5; test: Growth of cultured human tumor cell line SK-MEL-5; assay type: cell-based; settings: SK-MEL-5, up to 10 μM

| Compound | inhibition of cell growth (antimitotic activity) [1] | inhibition of cell growth (antimitotic activity) [2] | effect on the growth of cultured human tumor cell line [3] | effect on the growth of cultured human tumor cell line ([3]; listed as (−)-Peloruside A) | polymerization of tubulin dimers into microtubule polymers (microtubule-stabilizing activity) [4] | polymerization of tubulin dimers into microtubule polymers (microtubule-stabilizing activity) ([4]; listed as (−)-Peloruside A) | effect on the growth of cultured human tumor cell line [5] | effect on the growth of cultured human tumor cell line ([5]; listed as (−)-Peloruside A) |
| --- | --- | --- | --- | --- | --- | --- | --- | --- |
| CC[C@H](/C=C(/C)C1C[C@H](OC)CC(O)C(C)(C)C2(O)OC(C[C@@H](OC)C2O)C[C@@H](OC)[C@H](O)C(=O)O1)CO (stereo partly shown) [LX3111] | potent antimitotic activity | potent antimitotic activity |  |  |  |  |  |  |
| CC[C@H](/C=C(/C)C1C[C@@H](OC)CC(O)C(C)(C)C2(O)OC(C[C@@H](OC)C2O)C[C@@H](OC)[C@H](OCOC)C(=O)O1)CO (stereo partly shown) [LX3136] | potent antimitotic activity | potent antimitotic activity |  |  |  |  |  |  |
| (−)-Peloruside A [Compound 40] |  |  | no effect on the growth | inactive | did not polymerize tubulin dimers into microtubule polymers | biologically inactive | no effect on the growth | inactive |
